Test results from patent US10787432B2, “N-[(pyridyloxy)propanyl]benzamides” (Boehringer Ingelheim International GmbH, priority 2016, dated 2020).
Like-named read-outs stand apart in the source and are kept apart here.

How the values were obtained:
human orexin 2 receptor = target: T1, human orexin 2 receptor (Homo sapiens, UniProt O43614); assay: Assay B: In vitro testing of OX2R potency: OX2R IP1 (HTRF, CHO-K1/hOX2 cells, Orexin A as agonist); type: cell-based
T1 construct: stably expressing the full-length human orexin 2 receptor; expressed in transfected cells; host or cells: CHO-K1 (CHO-K1/hOX2), co-expressing aequorin
T1 sequence (O43614 1-444): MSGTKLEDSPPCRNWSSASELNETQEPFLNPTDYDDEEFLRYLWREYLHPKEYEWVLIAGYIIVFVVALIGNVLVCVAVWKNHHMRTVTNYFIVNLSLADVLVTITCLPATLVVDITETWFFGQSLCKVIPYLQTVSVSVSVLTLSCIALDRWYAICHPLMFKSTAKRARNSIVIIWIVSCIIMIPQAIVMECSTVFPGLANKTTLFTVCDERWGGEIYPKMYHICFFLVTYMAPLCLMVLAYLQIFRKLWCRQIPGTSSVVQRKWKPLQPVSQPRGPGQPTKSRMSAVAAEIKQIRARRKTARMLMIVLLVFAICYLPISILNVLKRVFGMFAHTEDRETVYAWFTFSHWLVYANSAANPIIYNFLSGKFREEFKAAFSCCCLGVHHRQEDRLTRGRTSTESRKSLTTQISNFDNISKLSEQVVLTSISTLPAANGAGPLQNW
Summary of the method: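 Kb was derived from IC50 (4-parameter fit) by correcting for agonist level, using IP1 accumulation read by HTRF 665/615 ratio. Stimulus: 0.5 nM Orexin A for 60 min at 37 °C, following 15 min compound preincubation (8 points, 1% DMSO, LiCl-containing buffer pH 7.4) on hOX2R-expressing CHO-K1 cells.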

[1] = Assay C: Metabolic stability in human liver microsomes (Human MST); type: in vitro ADME; conditions: pooled human liver microsomes, pH 7.6; human liver microsomes 1 mg/mL, compound 1 μM, 37° C., NADPH; read-out: Human MST t1/2
Summary of the method: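 Test compound (1 μM) was incubated at 37 °C with pooled human liver microsomes (1 mg/mL protein) in 0.1 M TRIS pH 7.6 with 5 mM MgCl2, and reactions were started with 1 mM NADPH. Aliquots were quenched at several time points and parent compound was quantified by LC-MS/MS. t1/2 came from the slope of the semi-log concentration–time plot.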

human Orexin 1 receptor = target: T2, human Orexin 1 receptor (Homo sapiens, UniProt O43613); assay: Assay A: In vitro testing of OX1R potency: OX1R IP1 (HTRF, CHO-K1/hOX1 cells, Orexin A as agonist); type: cell-based
T2 construct: stably expressing the full-length human Orexin 1 receptor; expressed in transfected cells; host or cells: CHO-K1 (CHO-K1/hOX1), co-expressing aequorin
T2 sequence (O43613 1-425): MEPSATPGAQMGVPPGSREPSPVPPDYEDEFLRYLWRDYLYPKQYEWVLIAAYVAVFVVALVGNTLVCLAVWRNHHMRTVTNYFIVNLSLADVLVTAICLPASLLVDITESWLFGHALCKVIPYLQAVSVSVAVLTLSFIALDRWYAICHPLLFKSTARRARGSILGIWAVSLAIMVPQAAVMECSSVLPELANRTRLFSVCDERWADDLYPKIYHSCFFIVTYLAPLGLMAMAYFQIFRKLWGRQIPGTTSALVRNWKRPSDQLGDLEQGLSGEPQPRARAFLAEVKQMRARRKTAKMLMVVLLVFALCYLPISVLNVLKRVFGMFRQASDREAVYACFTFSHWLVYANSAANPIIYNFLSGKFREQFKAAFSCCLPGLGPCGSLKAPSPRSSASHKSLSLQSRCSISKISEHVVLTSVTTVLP

[2] = Orexin A 50 nM, read-out: OX1R Kb (Orexin A concentration used)
[3] = Orexin A 0.5 nM, read-out: OX1R Kb (Orexin A concentration used)

Structure (SMILES)	Kb (human orexin 2 receptor; Orexin A 0.5 nM)	half-life at 1 μM [1]	OX2R Kb/OX1R Kb (human Orexin 1 receptor; OX1R Kb at 50 nM Orexin A)	Kb (human Orexin 1 receptor; [2])	OX2R Kb/OX1R Kb (human Orexin 1 receptor; OX1R Kb at 0.5 nM Orexin A)	Kb (human Orexin 1 receptor; [3])	Kb (human orexin 2 receptor)	Kb (human Orexin 1 receptor)
CCN(C(=O)c1cc(F)ccc1-c1ncccn1)[C@@H](C)COc1ccc(C(F)(F)F)cn1 [Example 107]	32 nM	65 min	500	0.064 nM	–	–	–	–
CCN(C(=O)c1ccc(F)cc1-c1ncccn1)[C@@H](C)COc1ccc(C(F)(F)F)cn1 [Example 108]	45 nM	50 min	409	0.11 nM	–	–	–	–
CCN(C(=O)c1cccc(F)c1-n1nccn1)[C@@H](C)COc1ccc(C(F)(F)F)cn1 [Example 109]	36 nM	75 min	327	0.11 nM	–	–	–	–
CCN(C(=O)c1cccc(F)c1-n1nccn1)[C@@H](C)COc1ncc(C(F)(F)F)cc1Cl [Example 110]	53 nM	100 min	312	0.17 nM	–	–	–	–
CCN(C(=O)c1cccc(F)c1-n1nccn1)[C@@H](C)COc1ccc(Br)cn1 [Example 111]	49 nM	62 min	213	0.23 nM	123	0.4 nM	–	–
CCN(C(=O)c1cccc(F)c1-n1nccn1)[C@@H](C)COc1ncc(Br)cc1F [Example 112]	96 nM	67 min	192	0.5 nM	168	0.57 nM	–	–
CCN(C(=O)c1cccc(F)c1-n1nccn1)[C@@H](C)COc1ncc(C(F)(F)F)cc1F [Example 113]	69 nM	95 min	–	–	173	0.4 nM	–	–
CCN(C(=O)c1cccc(F)c1-n1nccn1)[C@@H](C)COc1ccc(Cl)cn1 [Example 114]	54 nM	110 min	98	0.55 nM	92	0.59 nM	–	–
CCN(C(=O)c1c(F)cccc1-c1ncccn1)[C@@H](C)COc1ccc(C(F)(F)F)cn1 [Example 116]	45 nM	33 min	205	0.22 nM	132	0.34 nM	–	–
CCN(C(=O)c1ccccc1-c1ncccn1)[C@@H](C)COc1ccc(Br)cn1 [Example 117]	35 nM	32 min	318	0.11 nM	194	0.18 nM	–	–
CCN(C(=O)c1ccc(OC)cc1-c1ncccn1)[C@@H](C)COc1ccc(C(F)(F)F)cn1 [Example 118]	92 nM	15 min	2875	0.032 nM	–	–	–	–
CCN(C(=O)c1cc(F)ccc1-c1ncccn1)[C@@H](C)COc1ccc(Br)cn1 [Example 120]	43 nM	76 min	358	0.12 nM	165	0.26 nM	–	–
CCN(C(=O)c1ccc(C)cc1-c1nnc(C)o1)[C@@H](C)COc1ccc(OC(F)(F)F)cn1 [Example 121]	440 nM	15 min	293	1.5 nM	314	1.4 nM	–	–
CCN(C(=O)c1ccccc1-c1noc(C)n1)[C@@H](C)COc1ccc(C(F)(F)F)cn1 [Example 123]	34 nM	23 min	200	0.17 nM	–	–	–	–
CCN(C(=O)c1cc(F)ccc1-n1cccn1)[C@@H](C)COc1ncc(C(F)(F)F)cc1F [Example 124]	1060 nM	10 min	–	–	278	3.8 nM	–	–
CCN(C(=O)c1cccc(F)c1-c1ncccn1)[C@@H](C)COc1ccc(Br)cn1 [Example 125]	27 nM	> 130 min	355	0.076 nM	–	–	–	–
CCN(C(=O)c1cc(F)cc(F)c1-n1nccn1)[C@@H](C)COc1ccc(OC(F)(F)F)cn1 [Example 126]	41 nM	62 min	66	0.62 nM	71	0.58 nM	–	–
CCN(C(=O)c1c(-n2nccn2)ccc(C)c1F)[C@@H](C)COc1ncc(C(F)(F)F)cc1F [Example 127]	49 nM	15 min	377	0.13 nM	–	–	–	–
CCN(C(=O)c1ccc(F)cc1-c1ncccn1)[C@@H](C)COc1ccc(Br)cn1 [Example 129]	42 nM	30 min	247	0.17 nM	–	–	–	–
CCN(C(=O)c1cccc(F)c1-c1ncccn1)[C@@H](C)COc1ccc(OC(F)(F)F)cn1 [Example 130]	20 nM	> 130 min	133	0.15 nM	–	–	–	–
CCN(C(=O)c1ccc(OC)cc1-n1nccn1)[C@@H](C)COc1ncc(C(F)(F)F)cc1F [Example 131]	450 nM	11 min	900	0.5 nM	506	0.89 nM	–	–
CCN(C(=O)c1ccccc1-c1cnn(C)c1)[C@@H](C)COc1ncc(C(F)(F)F)cc1F [Example 132]	152 nM	11 min	–	–	89	1.7 nM	–	–
CCN(C(=O)c1cccc(F)c1-n1nccn1)[C@@H](C)COc1ccc(F)c(C(F)(F)F)n1 [Example 133]	–	21 min	–	–	63	–	101 nM	1.6 nM
CCN(C(=O)c1cccc(Cl)c1-n1nccn1)[C@@H](C)COc1ccc(OC(F)(F)F)cn1 [Example 134]	12 nM	64 min	86	0.14 nM	–	–	–	–
